US20040141939A1, “Cosmetic or dermatological use of peptides for promoting adhesion between skin cells” (priority 2001, published 2004)
Peptide text beside a SMILES is read from it.

Key:
[1] = Stability of the peptide by HPLC at various temperatures; format: physicochemical; conditions: 10^-4 M; after 8 days at 25° C.
Method: The Peptide Lys-Leu-Asp-Ala-Pro-Thr was analyzed with a concentration of 10^-4 M by HPLC on a column of the C18 type, and with a linear gradient water/TFA 0.1%-acetonitril/TFA 0.1%.

[2] = Stability of the peptide in culture medium conditioned by human fibroblasts and keratinocytes (released degradation enzymes), HPLC; format: in vitro ADME; conditions: medium from human fibroblasts and keratinocytes cultivated 24 hours at 37° C.; after 24 hours with peptide
Method: Human fibroblasts and keratinocytes were cultivated during 24 hours at 37° C. and 5% of CO2. For this period, the cells will release many degradation enzymes in the culture medium. Thereafter, the culture medium is removed to be put in the presence of the peptide.

[3] = tested on: fibroblasts and keratinocytes in culture; assay: Peptide applied to fibroblasts and keratinocytes in culture, HPLC analysis of the culture medium; format: in vitro ADME, human; conditions: in a few hours
Method: A test is carried out by applying the peptide to the fibroblasts and to the keratinocytes in culture.
This assumption is then consolidated by the tests of effectiveness exposed in the following examples.

keratinocytes = assay: Adhesion of keratinocytes to pre-treated 96 wells micro-plates (MTT, OD 560 nm against 630 nm); format: cell-based; conditions: Condition C: wells pre-treated 12 hours at 50 ppm; 3 hours contact with keratinocytes
Method: The study is carried out in 96 wells micro-plates on keratinocytes cultured in an incubator at 37° C. and 5% of CO2.
The wells of these plates are pre-treated, for 12 hours, in different ways; four conditions have been realized:
Condition A: negative control, not containing peptide;
Condition B: incubated with various peptides, made up from 3 to 25 amino acids, with a concentration of 35 ppm;
Condition C: incubated with fibronectin with a concentration of 50 ppm;
Condition D: incubated with the peptide of sequence Lys-Leu-Asp-Ala-Pro-Thr to a concentration of 5 ppm.
After 3 hours of contact with the keratinocytes, the wells are completely filled with medium, hermetically closed, turned over and agitated on a three-dimensional agitator during 20 minutes. Then the plates are emptied and the remaining medium is aspired. Then, 100 μl of MTT with 1 mg/ml are added by wells and are left for 3 hours at 37° C. and 5% CO2. The solution is finally withdrawn, then 100 μl of DMSO is added. A reading of the OD is made at 560 nm against 630 nm.
The OD is proportional to the quantity of viable cells, i.e. which adhered to the micro-plates.

peptide degradation (HPLC) [1]	degradation of peptide in conditioned culture medium [2]	peptide concentration in culture medium [3]	Compound	O.D. (adhered viable cells) (keratinocytes)
no peptide degradation	almost no degradation	decreases quickly	CC(C)C[C@H](NC(=O)[C@@H](N)CCCCN)C(=O)N[C@@H](CC(=O)O)C(=O)N[C@@H](C)C(=O)N1CCC[C@H]1C(=O)N[C@H](C(=O)O)[C@@H](C)O [Lys-Leu-Asp-Ala-Pro-Thr] (H-KLDAPT-OH; N-terminus and C-terminus assumed)	–
–	–	–	fibronectin	0.770
